Test [1] addresses T1, porcine beta-2 adrenoceptor (Sus scrofa, UniProt Q28997).
T1 construct: expressed in transfected cells; host or cells: CHO cells
In words: cAMP assay in CHO cells transfected with the porcine beta-2 adrenoceptor. As to conditions: cAMP (DiscoveRx Hit Hunter cAMP II) in CHO cells transfected with porcine beta-2 adrenoceptor, 30 minutes with compound, 0.5 mM IBMX. Format: cell-based. How it is done: (§1) CHO cells transfected with the bovine or porcine beta-2 adrenceptors were maintained in culture in DMEM/HAMS F12+10% FBS+2 mM glutamine+500 μg/ml geneticin (for the porcine receptor the medium was supplement with 1.5 mM HEPES) at 37° C. with a 5% CO2 atmosphere.
(§2) Cells were plated into 96 well viewplates in medium and incubated overnight at 37° C. with a 5% CO2 atmosphere. The cells were pre-incubated with 0.5 mM IBMX in PBS for 30 minutes prior to incubation with increasing concentrations of experimental compound (5×10^−12 to 10^−5 M) for 30 minutes at 37° C. with a 5% CO2 atmosphere. At the end of the incubation time the compound was removed and the cells assayed for cAMP using the DiscoveRx Hit Hunter cAMP II™ assay kit.
(§3) Duplicate samples were run for each experimental compound and the data generated was analysed using EC50 analysis software in Graphpad Prism.
(In general: cAMP levels reflect the balance of adenylyl cyclase and phosphodiesterase activity.)

In test [2] the target is T2, bovine beta-2 adrenoceptor (Bos taurus, UniProt Q28044).
T2 construct: expressed in transfected cells; host or cells: CHO cells
In words: cAMP assay in CHO cells transfected with the bovine beta-2 adrenoceptor. As to conditions: cAMP (DiscoveRx Hit Hunter cAMP II) in CHO cells transfected with bovine beta-2 adrenoceptor, 30 minutes with compound, 0.5 mM IBMX. Format: cell-based. How it is done:
as §1, §2, §3

Structures can show the parent of a compound that is named as a salt.

T1 sequence (Q28997 whole entry): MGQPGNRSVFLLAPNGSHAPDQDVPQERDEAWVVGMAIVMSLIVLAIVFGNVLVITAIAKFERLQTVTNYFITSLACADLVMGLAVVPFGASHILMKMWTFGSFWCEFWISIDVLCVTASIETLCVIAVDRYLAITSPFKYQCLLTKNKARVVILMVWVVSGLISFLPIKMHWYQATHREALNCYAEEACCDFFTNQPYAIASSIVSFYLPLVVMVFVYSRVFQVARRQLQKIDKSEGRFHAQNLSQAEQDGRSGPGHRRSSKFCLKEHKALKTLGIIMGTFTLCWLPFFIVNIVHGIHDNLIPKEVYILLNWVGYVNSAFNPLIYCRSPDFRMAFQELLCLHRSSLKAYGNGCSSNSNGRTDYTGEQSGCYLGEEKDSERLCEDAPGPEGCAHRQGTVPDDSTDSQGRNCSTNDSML
T2 sequence (Q28044 whole entry): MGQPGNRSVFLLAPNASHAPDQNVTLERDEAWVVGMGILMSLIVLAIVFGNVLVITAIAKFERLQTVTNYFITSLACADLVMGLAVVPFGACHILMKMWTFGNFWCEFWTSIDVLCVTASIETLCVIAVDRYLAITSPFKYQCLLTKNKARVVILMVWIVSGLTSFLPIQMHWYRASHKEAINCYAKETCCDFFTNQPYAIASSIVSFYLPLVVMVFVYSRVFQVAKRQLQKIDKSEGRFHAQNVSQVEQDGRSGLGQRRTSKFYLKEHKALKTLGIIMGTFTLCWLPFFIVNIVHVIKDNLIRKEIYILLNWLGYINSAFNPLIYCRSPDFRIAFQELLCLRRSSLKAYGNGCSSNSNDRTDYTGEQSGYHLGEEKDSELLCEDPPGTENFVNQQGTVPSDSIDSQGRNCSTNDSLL

A word on the EC50: it is the midpoint of the concentration-response curve. Consider `CC(CCc1ccccc1NS(C)(=O)=O)N[C@@H]1CCn2c(=O)[nH]c3cccc(c32)[C@H]1O` (mixture of isomers) [Example 33, N-[2-(3-{[7-Hydroxy-2-oxo-1,2,4,5,6,7-hexahydroimidazo[4,5,1-jk][1]benzazepin-6-yl]amino}butyl)phenyl]methanesulfonamide], for which the EC50 in test [1] stood at 11.9 nM.

With `Cc1cccc(CCC(C)N[C@@H]2CCn3c(=O)[nH]c4cccc(c43)[C@H]2O)c1O` (mixture of isomers) [Example 17, 7-Hydroxy-6-{[3-(2-hydroxy-3-methylphenyl)-1-methylpropyl]amino}-4,5,6,7-tetrahydroimidazo[4,5,1-jk][1]benzazepin-2(1H)-one], the EC50 in test [1] worked out at 3 nM; in test [2] it was 3.3 nM. For `CC(CCc1ccc2c(c1)CCO2)N[C@@H]1CCn2c(=O)[nH]c3cccc(c32)[C@H]1O` (single isomer, unassigned) [Example 3a, 6-{[3-(2,3-Dihydro-1-benzofuran-5-yl)-1-methylpropyl]amino}-7-hydroxy-4,5,6,7-tetrahydroimidazo[4,5,1-jk][1]benzazepin-2(1H)-one] the same measures were 8.1 nM and 34.3 nM. For `CC(CCc1cccc(CO)c1)N[C@@H]1CCn2c(=O)[nH]c3cccc(c32)[C@H]1O` (mixture of isomers) [Example 44, 7-Hydroxy-6-({3-[3-(hydroxymethyl)phenyl]-1-methylpropyl}amino)-4,5,6,7-tetrahydroimidazo[4,5,1-jk][1]benzazepin-2(1H)-one], the EC50 in test [1] was found to be 61.7 nM; in test [2], 75.7 nM.

Consider `CC(CCc1ccccc1O)N[C@@H]1CCn2c(=O)[nH]c3cccc(c32)[C@H]1O` (single isomer, unassigned) [Example 48, Hydrochloride salt of 7-hydroxy-6-{[3-(2-hydroxyphenyl)-1-methylpropyl]amino}-4,5,6,7-tetrahydroimidazo[4,5,1-jk][1]benzazepin-2(1H)-one], for which the EC50 was 1.9 nM in test [1] and 1 nM in test [2]. For `CC(CCc1cccc(Cl)c1O)N[C@@H]1CCn2c(=O)[nH]c3cccc(c32)[C@H]1O` (single isomer, unassigned) [Example 5a, 6-{[3-(3-Chloro-2-hydroxyphenyl)-1-methylpropyl]amino}-7-hydroxy-4,5,6,7-tetrahydroimidazo[4,5,1-jk][1]benzazepin-2(1H)-one] the same measures were 473 nM and 307 nM.

For `CC(CCc1ccc(NS(=O)(=O)c2ccccc2)cc1)NC1CCn2c(=O)[nH]c3cccc(c32)C1O` (single isomer, unassigned) [Example 67, N-{4-[3-{[7-Hydroxy-2-oxo-1,2,4,5,6,7-hexahydroimidazo[4,5,1-jk][1]benzazepin-6-yl]amino}butyl]phenyl}benzenesulfonamide], in test [2], the EC50 amounted to 156 nM. Take `C[C@H](CCc1cccc(Cl)c1O)N[C@@H]1CCn2c(=O)[nH]c3cccc(c32)[C@H]1O` (single isomer, unassigned) [Example 5c]: the EC50 in test [1] was 6 nM; in test [2], 2.7 nM. For `CC(/C=C/c1ccccc1F)N[C@@H]1CCn2c(=O)[nH]c3cccc(c32)[C@H]1O` (single isomer, unassigned) [Example 40b, 6-{[3-(2-Fluorophenyl)-1-methylprop-2-en-1-yl]amino}-7-hydroxy-4,5,6,7-tetrahydroimidazo[4,5,1-jk][1]benzazepin-2(1H)-one] the same measures were 18 nM and 33.2 nM. As for `COc1ccc(CCC(C)NC2CCn3c(=O)[nH]c4cccc(c43)C2O)cc1` (stereo not shown) [Example 34, 7-Hydroxy-6-{[3-(4-methoxyphenyl)-1-methylpropyl]amino}-4,5,6,7-tetrahydroimidazo[4,5,1-jk][1]benzazepin-2(1H)-one], the results for the EC50 in test [1] and in test [2] were 30.4 nM and 20.3 nM, respectively.

Regarding `CC(CCc1ccc(O)c(C(F)(F)F)c1)NC1CCn2c(=O)[nH]c3cccc(c32)C1O` (single isomer, unassigned) [Example 60, 7-Hydroxy-6-({3-[4-hydroxy-3-(trifluoromethyl)phenyl]-1-methylpropyl}amino)-4,5,6,7-tetrahydroimidazo[4,5,1-jk][1]benzazepin-2(1H)-one], the EC50 in test [1] was found to be 15.9 nM; in test [2] it was 10.5 nM. For `CC(CCc1ccc(NS(=O)(=O)C(F)(F)F)cc1)NC1CCn2c(=O)[nH]c3cccc(c32)C1O` (single isomer, unassigned) [Example 69, 1,1,1-Trifluoro-N-{4-[3-{[7-hydroxy-2-oxo-1,2,4,5,6,7-hexahydroimidazo[4,5,1-jk][1]benzazepin-6-yl]amino}butyl]phenyl}methanesulfonamide] the same measures were 50.3 nM and 234 nM. For `CCS(=O)(=O)Nc1ccccc1CCC(C)NC1CCn2c(=O)[nH]c3cccc(c32)C1O` (single isomer, unassigned) [Example 56, N-{2-[3-{[7-Hydroxy-2-oxo-1,2,4,5,6,7-hexahydroimidazo[4,5,1-jk][1]benzazepin-6-yl]amino}butyl]phenyl}ethanesulfonamide] the same measures were 2.8 nM and 5.2 nM. For `CC(CCc1cc(C#N)ccc1O)N[C@@H]1CCn2c(=O)[nH]c3cccc(c32)[C@H]1O` (mixture of isomers) [Example 22, 4-Hydroxy-3-(3-{[7-hydroxy-2-oxo-1,2,4,5,6,7-hexahydroimidazo[4,5,1-jk][1]benzazepin-6-yl]amino}butyl)benzonitrile] the same measures were 2.3 nM and 1.2 nM. Take `CC(CCc1ccccc1O)N[C@@H]1CCn2c(=O)[nH]c3cccc(c32)[C@H]1O` (mixture of isomers) [Example 6a, 7-Hydroxy-6-{[3-(2-hydroxyphenyl)-1-methylpropyl]amino}-4,5,6,7-tetrahydroimidazo[4,5,1-jk][1]benzazepin-2(1H)-one]: the EC50 in test [1] and in test [2] was 1.5 nM throughout. For `CC(CCc1cccc(C(F)(F)F)c1)N[C@@H]1CCn2c(=O)[nH]c3cccc(c32)[C@H]1O` (mixture of isomers) [Example 30, 7-Hydroxy-6-({1-methyl-3-[3-(trifluoromethyl)phenyl]propyl}amino)-4,5,6,7-tetrahydroimidazo[4,5,1-jk][1]benzazepin-2(1H)-one], the EC50 amounted to 5.5 nM in test [1] and 37.1 nM in test [2]. For `CC(CCc1cccc(C(=O)O)c1)N[C@@H]1CCn2c(=O)[nH]c3cccc(c32)[C@H]1O` (single isomer, unassigned) [Example 53] the same measures were 78.8 nM and 167 nM. For `C[C@@H](CCc1cccc(NC(=O)C(F)(F)F)c1)N[C@@H]1CCn2c(=O)[nH]c3cccc(c32)[C@H]1O` (single isomer, unassigned) [Example 57, 2,2,2-Trifluoro-N-{3-[3-{[7-hydroxy-2-oxo-1,2,4,5,6,7-hexahydroimidazo[4,5,1-jk][1]benzazepin-6-yl]amino}butyl]phenyl}acetamide] the same measures were 7.1 nM and 6.1 nM. For `CC(CCc1ccc(O)cc1)N[C@@H]1CCn2c(=O)[nH]c3cccc(c32)[C@H]1O` (single isomer, unassigned) [Example 2d, 7-Hydroxy-6-{[3-(4-hydroxyphenyl)-1-methylpropyl]amino}-4,5,6,7-tetrahydroimidazo[4,5,1-jk][1]benzazepin-2(1H)-on] the same measures were 1.9 nM and 3.6 nM. `Cc1ccccc1CCC(C)N[C@@H]1CCn2c(=O)[nH]c3cccc(c32)[C@H]1O` (mixture of isomers) [Example 13b, 7-hydroxy-6-{[1-Methyl-3-(2-methylphenyl)propyl]amino}-4,5,6,7-tetrahydroimidazo[4,5,1-jk][1]benzazepin-2(1H)-one]: the EC50 is 0.9 nM in test [1] and 2 nM in test [2].

In the case of `COc1ccccc1CCC(C)N[C@@H]1CCn2c(=O)[nH]c3cccc(c32)[C@H]1O` (mixture of isomers) [Example 20, 7-Hydroxy-6-{[3-(2-methoxyphenyl)-1-methylpropyl]amino}-4,5,6,7-tetrahydroimidazo[4,5,1-jk][1]benzazepin-2(1H)-one], the EC50 in test [1] worked out at 35.8 nM; in test [2], 7.5 nM. For `CC(CCc1ccc(OC(C)C)cc1)N[C@@H]1CCn2c(=O)[nH]c3cccc(c32)[C@H]1O` (mixture of isomers) [Example 16, 7-Hydroxy-6-{[3-(4-isopropoxyphenyl)-1-methylpropyl]amino}-4,5,6,7-tetrahydroimidazo[4,5,1-jk][1]benzazepin-2(1H)-one] the same measures were 5.5 nM and 17.3 nM. Turning to `CC(CCc1cc(F)cc(F)c1O)N[C@@H]1CCn2c(=O)[nH]c3cccc(c32)[C@H]1O` (mixture of isomers) [Example 10b, 6-{[3-(3,5-Difluoro-2-hydroxyphenyl)-1-methylpropyl]amino}-7-hydroxy-4,5,6,7-tetrahydroimidazo[4,5,1-jk][1]benzazepin-2(1H)-one], the figures for the EC50 in test [1] and in test [2] were 1.7 nM and 0.8 nM, respectively. For `CC(CCc1ccc2c(c1)CCO2)N[C@@H]1CCn2c(=O)[nH]c3cccc(c32)[C@H]1O` (single isomer, unassigned) [Example 3b, 6-{[3-(2,3-Dihydro-1-benzofuran-5-yl)-1-methylpropyl]amino}-7-hydroxy-4,5,6,7-tetrahydroimidazo[4,5,1-jk][1]benzazepin-2(1H)-one] the same measures were 108 nM and 456 nM.

Values taken from patent publication US20080161288A1, “COMPOUNDS” (Pfizer Inc., priority 2006, published 2008).
